We go through 25 compounds from patent US9447051B2, “Diaminopyrimidines and uses thereof” (AbbVie inc., priority 2012, dated 2016).

A value given as a limit tells only on which side of the number the result lay.

Data set [1] concerns RSV (Group A, Long Strain). Kind of data set: Antiviral (RSV) assay: cytopathetic effect (CPE) protection assay in HEp-2 cells, MTT readout. Type of data set: cell-based, human respiratory syncytial virus (RSV). Conditions: human respiratory syncytial virus, HEp-2, 96 h. As to the method: HEp-2 cells and RSV (Group A, Long Strain) were obtained from the American Type Culture Collection (Manassas, Va.). A cytopathetic effect (CPE) protection assay was performed to determine the ability of a compound to protect the cells from viral infection and thus the CPE induced by viral infection. 96-well plates were first seeded with 3×10^3 HEp-2 cells per well in Dulbecco's modified Eagle's medium (DMEM) containing 10% fetal bovine serum (FBS). One day after the cells were seeded, they were preincubated with serial dilutions of compounds prepared in 100 μL assay medium (DMEM mixed with F12 medium at a 1:1 ratio, supplemented with 2% FBS and 1 mM sodium pyruvate) for 1 hour at 37° C. 100 μL of assay medium containing 0.2 multiplicity of infection (MOI) of RSV was then added to each well of cells. In addition to wells containing infected cells incubated with compounds, each plate also contained replicates of two kinds of controls: (1) Virus control contained cells infected with 0.2 MOI of RSV in assay medium, (2) Uninfected cell control contained cells incubated with assay medium only. After 4 days of incubation at 37° C., the viability of cells was assessed using MTT (Thiazolyl blue tetrazolium bromide, Sigma). A stock solution of MTT, at a concentration of 4 mg/mL in phosphate-buffered saline, was added to all wells at 25 μL per well. Plates were further incubated for 4 hours, and each well was then treated with 50 μL of a solution containing 20% sodium dodecyl sulfate (SDS) and 0.02 N HCl. After an overnight incubation, the plates were measured on a BioTek® microtiter plate reader at wavelengths of 570 nm and 650 nm. The MTT detection is based on the fact that viable (uninfected) cells can reduce the tetrazolium salts into colored formazan products, which can then be quantitated by spectrometry. […] Compounds were tested to determine both their antiviral and toxicity to determine their therapeutic window. Determination of the EC50 and TD50 of these active compounds were repeated one additional time to confirm the window.

Data set [2] has as its system HEp-2 cells. Kind of data set: Cytotoxicity (MTT) assay. Type of data set: cell-based. The conditions noted are these: Table 2; uninfected HEp-2 cells, 4 days incubation, 50% toxicity dose. As to the method:
A cytopathetic effect (CPE) protection assay was performed to determine the ability of a compound to protect the cells from viral infection and thus the CPE induced by viral infection. 96-well plates were first seeded with 3×10^3 HEp-2 cells per well in Dulbecco's modified Eagle's medium (DMEM) containing 10% fetal bovine serum (FBS). One day after the cells were seeded, they were preincubated with serial dilutions of compounds prepared in 100 μL assay medium (DMEM mixed with F12 medium at a 1:1 ratio, supplemented with 2% FBS and 1 mM sodium pyruvate) for 1 hour at 37° C. 100 μL of assay medium containing 0.2 multiplicity of infection (MOI) of RSV was then added to each well of cells. In addition to wells containing infected cells incubated with compounds, each plate also contained replicates of two kinds of controls: (1) Virus control contained cells infected with 0.2 MOI of RSV in assay medium, (2) Uninfected cell control contained cells incubated with assay medium only. After 4 days of incubation at 37° C., the viability of cells was assessed using MTT (Thiazolyl blue tetrazolium bromide, Sigma). A stock solution of MTT, at a concentration of 4 mg/mL in phosphate-buffered saline, was added to all wells at 25 μL per well. Plates were further incubated for 4 hours, and each well was then treated with 50 μL of a solution containing 20% sodium dodecyl sulfate (SDS) and 0.02 N HCl. After an overnight incubation, the plates were measured on a BioTek® microtiter plate reader at wavelengths of 570 nm and 650 nm. The MTT detection is based on the fact that viable (uninfected) cells can reduce the tetrazolium salts into colored formazan products, which can then be quantitated by spectrometry. Based on the spectrometric absorbance of each sample, the percent of protection from CPE, which is an indicator of protection from viral infection, can be calculated for each compound and the 50% effective concentrations (EC50) can be calculated using a nonlinear regression curve fitting equation provided by the GraphPad Prism® 4 software.
Cytotoxicity of the compounds was determined in experiments done in parallel with the antiviral assays. To do this, 100 μL of assay medium was added to the wells of HEp-2 cells pretreated with 100 μL serially diluted compounds as described above. After 4 days of incubation, the viability of the cells was determined by the MTT assay in the same way as detailed in the “Antiviral Assay” method. Results were expressed as 50% toxicity dose (TD50) values.
Compounds were tested to determine both their antiviral and toxicity to determine their therapeutic window. Determination of the EC50 and TD50 of these active compounds were repeated one additional time to confirm the window.

Where [3] appears, read: Table 1, 0.2 MOI RSV, 4 days incubation, protection from CPE.
The mark [4] stands for this setting: Table 2, 0.2 MOI RSV, 4 days, determination repeated to confirm window.

In general, EC50 refers to the midpoint of the concentration-response curve. High values mean weaker potency, low ones greater potency. Consider `Cc1cc(NC2CCCCC2)nc(NCc2ccccn2)n1` [Example 4, N^4-cyclohexyl-6-methyl-N^2-(pyridin-2-ylmethyl)pyrimidine-2,4-diamine], for which the EC50 in data set [1] (setting [3]) and in data set [1] (setting [4]) was 23500 nM throughout. Besides, the “MTT TD50” value in data set [2] turned out to be 39.00 µM. Take `Cc1nc(NCc2ccccn2)nc(NC2CCCCC2)c1C` [Example 1, N^4-cyclohexyl-5,6-dimethyl-N^2-(pyridin-2-ylmethyl)pyrimidine-2,4-diamine]: the EC50 was 250 nM in data set [1] (setting [3]) and 150 nM in data set [1] (setting [4]). Moreover, the “MTT TD50” value in data set [2] is 23.00 µM. The like results for `Cc1ccccc1CNc1nc(NCc2ccccn2)nc2c1CCC2` [Example 2, N^4-(2-methylbenzyl)-N^2-(pyridin-2-ylmethyl)-6,7-dihydro-5H-cyclopenta[d]pyrimidine-2,4-diamine] were, in that order, 2050 nM, 2050 nM and 7.17 µM. On the same counts, the results for `Cc1cc(NC2CCCCCC2)nc(NCc2ccccn2)n1` [Example 3, N^4-cycloheptyl-6-methyl-N^2-(pyridin-2-ylmethyl)pyrimidine-2,4-diamine] are 2790 nM, 2790 nM and 8.04 µM. Compound `Cc1cc(F)ccc1Nc1nc(NCc2ccccn2)nc(C)c1C` [Example 75, N^4-(4-fluoro-2-methylphenyl)-5,6-dimethyl-N^2-(pyridin-2-ylmethyl)pyrimidine-2,4-diamine] yielded an EC50 in data set [1] (setting [3]) of 26 nM.

On to `Cc1nc(NCc2ccccn2)nc(NC2CCCC(C)C2C)c1C` (stereo not drawn) [Example 41, N^4-(2,3-dimethylcyclohexyl)-5,6-dimethyl-N^2-(pyridin-2-ylmethyl)pyrimidine-2,4-diamine], for which it took 40 nM to reach a half-maximal effect in data set [1] (setting [3]) (EC50). Still for that read-out and setting: in the case of `Cc1nc(NCc2ccccn2)nc(NC2CCOc3ccccc32)c1C` (stereo not drawn) [Example 36, N^4-(3,4-dihydro-2H-chromen-4-yl)-5,6-dimethyl-N^2-(pyridin-2-ylmethyl)pyrimidine-2,4-diamine] it was 530 nM; in that of `Cc1nc(NCc2ccccn2)nc(NC2CCCCC2C)c1C` (stereo not drawn) [Example 40, 5,6-dimethyl-N^4-(2-methylcyclohexyl)-N^2-(pyridin-2-ylmethyl)pyrimidine-2,4-diamine], 65 nM.

With `Cc1nc(NCc2ccccn2)nc(N[C@H]2CC[C@H](O)CC2)c1C` [Example 79, trans-4-({5,6-dimethyl-2-[(pyridin-2-ylmethyl)amino]pyrimidin-4-yl}amino)cyclohexanol], in data set [1] (setting [3]), the response was half-maximal at 620 nM (EC50).

Turning to `Cc1cccnc1CNc1nc(C)c(C)c(NC2CCCCC2)n1` [Example 26, N^4-cyclohexyl-5,6-dimethyl-N^2-[(3-methylpyridin-2-yl)methyl]pyrimidine-2,4-diamine], in data set [1] (setting [3]), the EC50 was above 5800 nM. `Cc1nc(NCc2ccccn2)nc(NC2CCN(C)CC2)c1C` [Example 81, 5,6-dimethyl-N^4-(1-methylpiperidin-4-yl)-N^2-(pyridin-2-ylmethyl)pyrimidine-2,4-diamine] yielded an EC50 in data set [1] (setting [3]) of 1300 nM.

In data set [1] (setting [3]), `Cc1nc(NCc2ccccn2)nc(Nc2ccc3c(c2)OCO3)c1C` [Example 61, N^4-(1,3-benzodioxol-5-yl)-5,6-dimethyl-N^2-(pyridin-2-ylmethyl)pyrimidine-2,4-diamine] had an EC50 of 40 nM. Same read-out and setting: with `Cc1nc(NCc2ccccn2)nc(NC2CCC(O)C2)c1C` (stereo not drawn) [Example 34, 3-({5,6-dimethyl-2-[(pyridin-2-ylmethyl)amino]pyrimidin-4-yl}amino)cyclopentanol] the figure was 4300 nM. The same measure, in the same setting: in the case of `COc1ccnc(CNc2nc(C)c(C)c(NC3CCCCC3)n2)c1` [Example 18, N^4-cyclohexyl-N^2-[(4-methoxypyridin-2-yl)methyl]-5,6-dimethylpyrimidine-2,4-diamine] it was 310 nM; in that of `Cc1nc(NCc2ccccn2)nc(Nc2ccccc2F)c1C` [Example 51, N^4-(2-fluorophenyl)-5,6-dimethyl-N^2-(pyridin-2-ylmethyl)pyrimidine-2,4-diamine], 320 nM. `Cc1ccccc1Nc1nc(NCc2ccccn2)nc(C)c1C` [Example 67, 5,6-dimethyl-N^4-(2-methylphenyl)-N^2-(pyridin-2-ylmethyl)pyrimidine-2,4-diamine] gave a 50% effective concentration (EC50) in data set [1] (setting [3]) of 7 nM. The same measure, in the same setting: with `Cc1nc(NCc2ccccn2)nc(Nc2cccc(OC(F)(F)F)c2)c1C` [Example 53, 5,6-dimethyl-N^2-(pyridin-2-ylmethyl)-N^4-[3-(trifluoromethoxy)phenyl]pyrimidine-2,4-diamine] the figure was 38 nM; with `Cc1nc(NCc2ccccn2)nc(Nc2cccnc2)c1C` [Example 93, 5,6-dimethyl-N^4-(pyridin-3-yl)-N^2-(pyridin-2-ylmethyl)pyrimidine-2,4-diamine], 930 nM; with `Cc1nc(NCc2ccccn2)nc(NC2CCc3ccccc32)c1C` (stereo not drawn) [Example 33, N^4-(2,3-dihydro-1H-inden-1-yl)-5,6-dimethyl-N^2-(pyridin-2-ylmethyl)pyrimidine-2,4-diamine], 180 nM.

For `Cc1ccnc(CNc2nc(C)c(C)c(NC3CCC(F)(F)CC3)n2)c1` [Example 28, N^4-(4,4-difluorocyclohexyl)-5,6-dimethyl-N^2-[(4-methylpyridin-2-yl)methyl]pyrimidine-2,4-diamine], in data set [1] (setting [3]), the half-maximal effective concentration (EC50) amounted to 61 nM. Same read-out and setting: with `Cc1nc(NCc2ccccn2)nc(NC2CCCCCC2)c1C` [Example 45, N^4-cycloheptyl-5,6-dimethyl-N^2-(pyridin-2-ylmethyl)pyrimidine-2,4-diamine] the figure was 18 nM; with `COc1cccc(CNc2nc(C)c(C)c(NC3CCCCC3)n2)c1` [Example 25, N^4-cyclohexyl-N^2-(3-methoxybenzyl)-5,6-dimethylpyrimidine-2,4-diamine], above 3400 nM; with `Cc1nc(NCc2ccccn2)nc(NC2CCS(=O)(=O)C2)c1C` (stereo not drawn) [Example 70, N^4-(1,1-dioxidotetrahydrothiophen-3-yl)-5,6-dimethyl-N^2-(pyridin-2-ylmethyl)pyrimidine-2,4-diamine], 950 nM.

Take `Cc1nc(NCc2ccccn2)nc(NCC2CCCC2)c1C` [Example 44, N^4-(cyclopentylmethyl)-5,6-dimethyl-N^2-(pyridin-2-ylmethyl)pyrimidine-2,4-diamine]: in data set [1] (setting [3]), the response was half-maximal at 24000 nM (EC50).

In the case of `Cc1nc(NCc2ccn[nH]2)nc(NC2CCCCC2)c1C` [Example 14, N^4-cyclohexyl-5,6-dimethyl-N^2-(1H-pyrazol-5-ylmethyl)pyrimidine-2,4-diamine], in data set [1] (setting [3]), the EC50 came to 840 nM.
